Results from patent US20260335495A1, “SYNERGISTIC ACTIVITY OF NOVEL COMPOUNDS AGAINST PLANKTONIC AND BIOFILM CELLS OF CLINICALLY RELEVANT PATHOGENS” (priority 2021, published 2026).

Key:
C. albicans ON47 = experiment: MIC and checkerboard (FICI), planktonic cells; type: cell-based; conditions: for MIC: alone, 24 h, 37 °C
Experimental: (§1) The MIC was determined by the micro broth dilution method in 96-well plates. […] A 10 μL containing 1×10^5 bacterial cells or 2×10^3 fungal cells were added to each well. The inoculated plates were covered with a lid, sealed with Parafilm, and incubated for 24 h at 37 °C with slight rocking on a tilting platform shaker. After incubation, the optical density at 600 nm (OD 600) of the cultures in each well was measured using an xMark™ Microplate Absorbance Spectrophotometer (Bio-Rad). The MIC was defined as the lowest concentration of antimicrobial compound at which the culture OD600 values was similar to uninoculated control wells. MBCs and MFCs were determined by transferring 100 μL from each well with no apparent growth onto appropriate agar plates, followed by incubation for 24 h at 37 °C.
(§2) The concentrations of antimicrobials used were based on previously determined MIC values. […] Microtiter plates were incubated at 37 °C for 24 h, and the results were analyzed. Each test was performed in duplicate and included a growth control without the addition of any antimicrobials.

Candida albicans SK4b = experiment: MIC and checkerboard (FICI), planktonic cells; type: cell-based; conditions: for MIC: alone, 24 h, 37 °C
Experimental: as §1, §2

E. coli SK2 [1] = experiment: MIC and checkerboard (FICI), planktonic cells; type: cell-based; conditions: for MIC: alone, 24 h, 37 °C
Experimental: as §1, §2

Escherichia coli ON29 = experiment: MIC and checkerboard (FICI), planktonic cells; type: cell-based; conditions: for MIC: alone, 24 h, 37 °C
Experimental: as §1, §2

Proteus mirabilis ON153 [2] = experiment: MIC and checkerboard (FICI), planktonic cells; type: cell-based; conditions: for MIC: alone, 24 h, 37 °C
Experimental: as §1, §2

[3] = test system: Pseudomonas aeruginosa SK1; experiment: MIC and checkerboard (FICI), planktonic cells; type: cell-based; conditions: for MIC: alone, 24 h, 37 °C
Experimental: as §1, §2

S. epidermidis SK9 = experiment: MIC and checkerboard (FICI), planktonic cells; type: cell-based; conditions: for MIC: alone, 24 h, 37 °C
Experimental: as §1, §2

Serratia marcescens SK2 = experiment: MIC and checkerboard (FICI), planktonic cells; type: cell-based; conditions: for MIC: alone, 24 h, 37 °C
Experimental: as §1, §2

[4] = test system: Staphylococcus aureus ON89; experiment: MIC and checkerboard (FICI), planktonic cells; type: cell-based; conditions: for MIC: alone, 24 h, 37 °C
Experimental: as §1, §2

[5] = test system: Staphylococcus epidermidis ON170; experiment: MIC and checkerboard (FICI), planktonic cells; type: cell-based; conditions: for MIC: alone, 24 h, 37 °C
Experimental: as §1, §2

[6] = test system: Stenotrophomonas maltophilia ON17; experiment: MIC and checkerboard (FICI), planktonic cells; type: cell-based; conditions: for MIC: alone, 24 h, 37 °C
Experimental: as §1, §2

MRSA ON184 [7] = experiment: MIC and checkerboard (FICI), planktonic cells; type: cell-based, methicillin-resistant S. aureus; conditions: for MIC: alone, 24 h, 37 °C
Experimental: as §1, §2

E. coli SK2 [8] = experiment: MBC/MFC and FMCI, planktonic cells; type: cell-based; conditions: for MBC/MFC: alone
Experimental: as §1, §2

Proteus mirabilis ON153 [9] = experiment: MBC/MFC and FMCI, planktonic cells; type: cell-based; conditions: for MBC/MFC: alone
Experimental: as §1, §2

[10] = test system: Staphylococcus epidermidis ON170; experiment: MBC/MFC and FMCI, planktonic cells; type: cell-based; conditions: for MBC/MFC: alone
Experimental: as §1, §2

MRSA ON184 [11] = experiment: MBC/MFC and FMCI, planktonic cells; type: cell-based, methicillin-resistant S. aureus; conditions: for MBC/MFC: alone
Experimental: as §1, §2

12 test organisms = experiment: MBC/MFC and FMCI, planktonic cells, summary over strains; type: cell-based, bacterial and fungal organisms
Experimental: as §1, §2

[12] = test system: preformed biofilms of test pathogens; experiment: MBEC and FBEC index, 48 h old biofilms, summary over strains; type: cell-based, bacterial and fungal strains; conditions: alone: 4% tetrasodium EDTA, 50% ethanol, 100 μg/mL chlorhexidine HCl, 24 hours
Experimental: The evaluation of the biofilm cultivation cell composition was evaluated using an MBEC Assay® biofilm inoculator, consisting of a polystyrene lid with 96 downward-protruding pegs and a corresponding base used to grow biofilms. A standardized inoculum was diluted in an appropriate biofilm growth medium to achieve a viable cell count of 1.5×10^6 CFU/mL of bacterial cells or 5×10^5 CFU/mL of fungal cells. Then, 150 μL of this inoculum was transferred into each appropriate well, and the peg lids were inserted into the microtiter plates. The plates were sealed with Parafilm and were incubated at optimum temperature for 48 h with slight rocking for bacteria and shaking at 200 rpm for fungal strains. After incubation, the peg lid was removed from the base and rinsed twice with sterile phosphate-buffered saline (PBS) for 2 min to remove loosely attached non-sessile cells. Before the antimicrobial challenge, the pegs in column 1 (n=8) were considered as the biofilm growth control; these pegs were removed from the lids, placed into 200 μL of recovery medium, and analyzed for starting biofilm cell numbers as described below. […] After the antimicrobial challenge, the pegs were rinsed twice with sterile PBS for 2 min and placed into a new 96-well plate containing 200 μL of recovery medium. The recovery plates were sealed with Parafilm, and biofilm cells were dislodged from the pegs by sonication for 30 min with a Branson 3510 bath sonicator. The biofilm cells in the recovery medium were serially diluted, and a drop dilution assay was performed to enumerate the viable cells.
In step (4), microtiter plates are incubated at 37 °C for 24 h. then (6), after incubation, the bacterial and fungal cells were dislodged from the pegs into the recovery medium described above.
Three 10-μL aliquots, for a total of 30 μL from each well of recovery medium, were spotted on MH agar plates and incubated for 24 hours at 37 °C. […] The FBEC determination is a modification of the FICI. […]

[13] = test system: bacterial and fungal biofilms; experiment: Rapid eradication of 48-h-old biofilms within 2 h exposure; type: cell-based, bacterial and fungal strains; conditions: at the MBEC alone, 48-h-old biofilm
Experimental: This example comprises performing biofilm growth as described above. After biofilm formation, control pegs (n=6) were removed and analyzed to determine the starting biofilm cell numbers via the drop dilution method. The 48-h old biofilms on the pegs were exposed to different concentrations of test antimicrobials, dissolved in an appropriate growth medium, for 2 hours to evaluate their efficacy alone and in combination. […] Following treatment, pegs were washed twice with sterile PBS, and the biofilm cells were dislodged into recovery medium and enumerated as described above.

SMILES: CCO [ET, ethanol]
- MIC in combination (C. albicans ON47; TE + ET in combination): 0.4%
- MIC (C. albicans ON47): 6.25%
- MIC in combination (Candida albicans SK4b; TE + ET in combination): 1.6%
- MIC (Candida albicans SK4b): 6.25%
- MIC in combination (E. coli SK2 [1]; TE + ET in combination): 6.25%
- MIC (E. coli SK2 [1]): 12.5%
- MIC in combination (Escherichia coli ON29; TE + ET in combination): 3.125%
- MIC (Escherichia coli ON29): 12.5%
- MIC in combination (Proteus mirabilis ON153 [2]; TE + ET in combination): 1.6%
- MIC (Proteus mirabilis ON153 [2]): 6.25%
- MIC in combination ([3]; TE + ET in combination): 3.125%
- MIC [3]: 3.125%
- MIC in combination (S. epidermidis SK9; TE + ET in combination): 0.4%
- MIC (S. epidermidis SK9): 6.25%
- MIC in combination (Serratia marcescens SK2; TE + ET in combination): 3.125%
- MIC (Serratia marcescens SK2): 6.25%
- MIC in combination ([4]; TE + ET in combination): 0.4%
- MIC [4]: 6.25%
- MIC in combination ([5]; TE + ET in combination): 0.4%
- MIC [5]: 3.125%
- MIC in combination ([6]; TE + ET in combination): 0.4%
- MIC [6]: 6.25%
- MIC in combination (MRSA ON184 [7]; TE + ET in combination): 0.4%
- MIC (MRSA ON184 [7]): 6.25%
- MBC/MFC in combination (E. coli SK2 [8]; TE + ET in combination): 6.25%
- MBC/MFC (E. coli SK2 [8]): 25%
- MBC/MFC in combination (Proteus mirabilis ON153 [9]; TE + ET in combination): 6.25%
- MBC/MFC (Proteus mirabilis ON153 [9]): 12.5%
- MBC/MFC in combination ([10]; TE + ET in combination): 1.6%
- MBC/MFC [10]: 6.25%
- MBC/MFC in combination (MRSA ON184 [11]; TE + ET in combination): 3.125%
- MBC/MFC (MRSA ON184 [11]): 25%
- microbicidal activity (12 test organisms): broad-spectrum microbicidal activity
- eradication of all established biofilms [12]: able to eradicate all established biofilms
- biofilm eradication [13]: failed to eradicate the preformed biofilms

SMILES: O=C(O)CN(CCN(CC(=O)O)CC(=O)O)CC(=O)O.[Na].[Na].[Na].[Na] [TE, tetrasodium ethylenediaminetetraacetic acid]
- MIC in combination (C. albicans ON47; TE + CH in combination): 0.125%
- MIC in combination (C. albicans ON47; TE + ET in combination): 0.25%
- MIC (C. albicans ON47): 1%
- MIC in combination (Candida albicans SK4b; TE + CH in combination): 0.063%
- MIC in combination (Candida albicans SK4b; TE + ET in combination): 0.25%
- MIC (Candida albicans SK4b): 1%
- MIC in combination (E. coli SK2 [1]; TE + CH in combination): 0.008%
- MIC in combination (E. coli SK2 [1]; TE + ET in combination): 0.015%
- MIC (E. coli SK2 [1]): 0.5%
- MIC in combination (Escherichia coli ON29; TE + CH in combination): 0.008%
- MIC in combination (Escherichia coli ON29; TE + ET in combination): 0.25%
- MIC (Escherichia coli ON29): 0.5%
- MIC in combination (Proteus mirabilis ON153 [2]; TE + CH in combination): 0.063%
- MIC in combination (Proteus mirabilis ON153 [2]; TE + ET in combination): 0.5%
- MIC (Proteus mirabilis ON153 [2]): 1%
- MIC in combination ([3]; TE + CH in combination): 0.5%
- MIC in combination ([3]; TE + ET in combination): 0.031%
- MIC [3]: 0.25%
- MIC in combination (S. epidermidis SK9; TE + CH in combination): 0.015%
- MIC in combination (S. epidermidis SK9; TE + ET in combination): 0.015%
- MIC (S. epidermidis SK9): 0.063%
- MIC in combination (Serratia marcescens SK2; TE + CH in combination): 0.063%
- MIC in combination (Serratia marcescens SK2; TE + ET in combination): 0.5%
- MIC (Serratia marcescens SK2): 1%
- MIC in combination ([4]; TE + CH in combination): 0.008%
- MIC in combination ([4]; TE + ET in combination): 0.015%
- MIC [4]: 0.063%
- MIC in combination ([5]; TE + CH in combination): 0.063%
- MIC in combination ([5]; TE + ET in combination): 0.015%
- MIC [5]: 0.063%
- MIC in combination ([6]; TE + CH in combination): 0.015%
- MIC in combination ([6]; TE + ET in combination): 0.031%
- MIC [6]: 0.063%
- MIC in combination (MRSA ON184 [7]; TE + CH in combination): 0.008%
- MIC in combination (MRSA ON184 [7]; TE + ET in combination): 0.015%
- MIC (MRSA ON184 [7]): 0.063%
- MBC/MFC in combination (E. coli SK2 [8]; TE + CH in combination): 0.015%
- MBC/MFC in combination (E. coli SK2 [8]; TE + ET in combination): 0.25%
- MBC/MFC (E. coli SK2 [8]): 0.5%
- MBC/MFC in combination (Proteus mirabilis ON153 [9]; TE + CH in combination): 0.125%
- MBC/MFC in combination (Proteus mirabilis ON153 [9]; TE + ET in combination): 0.063%
- MBC/MFC (Proteus mirabilis ON153 [9]): 2%
- MBC/MFC in combination ([10]; TE + CH in combination): 0.25%
- MBC/MFC in combination ([10]; TE + ET in combination): 0.031%
- MBC/MFC [10]: 0.5%
- MBC/MFC in combination (MRSA ON184 [11]; TE + CH in combination): 0.125%
- MBC/MFC in combination (MRSA ON184 [11]; TE + ET in combination): 0.031%
- MBC/MFC (MRSA ON184 [11]): 2%
- microbicidal activity (12 test organisms): broad-spectrum microbicidal activity
- eradication of all established biofilms [12]: able to eradicate all established biofilms
- biofilm eradication [13]: failed to eradicate the preformed biofilms
